Data as given in US3982999A, “Complexing cresolase with copper chelating agents” (priority 1974, dated 1976).
Where “and” joins values, the source holds several entries; their conditions need not be identical. Equal values may be shown once. Read-outs that look alike come from different tables or passages of the source.

What was measured:
[1] = system: Tyrosinase (polyphenol oxidase) isolated from mushrooms; settings: control 0.0433
Protocol: ^a Tyrosinase (polyphenol oxidase) isolated from mushrooms and purchased from Sigma, St. Louis, Mo. The reaction was carried out in 2 quartz curvette containing 1 ml of phosphate buffer (0.5 M, pH 6.5) 1 ml of substrate (1 mM L-tyrosine in H2 O), 0.5 ml of solvent or drug, 0.5 ml H2 O (for blank), 0.4 ml H2 O and 0.1 ml of enzyme (0.5 mg/ml) for the reaction tube. The reaction was started by the addition of enzyme and the change of optical density (Δ O.D.) was determined at 1 min intervals.

L1210 leukemia cells [2] = assay: 3-day L1210 cell growth inhibition assay in culture (complete or regular medium); format: cell-based, mouse; settings: for L1210 Cell Growth (cell concentration day 3 - day 0): control growth 147.9
Source text: (§1) In this experiment, we further investigated the effects of tyrosinase on L1210 cell growth with two media; 1) complete or regular medium and; 2) tyrosine-phenylalanine depleted medium.
(§2) ^a 3-day cell growth inhibition assay.
^b Cell Growth = (cell concentration day 3 - cell concentration day 0

L1210 leukemia cells [3] = assay: 3-day L1210 cell growth inhibition assay in tyrosine-phenylalanine depleted medium; format: cell-based, mouse; settings: Tyrosine and Phenylalamine Depleted Medium, 0.15 g/ml 8-Hydroxyquinoline
Source text: as §1, §2

[4] = Preliminary toxicity study, single intraperitoneal dose; settings: mouse, in vivo, ip; single intraperitoneal (i.p.) dose, suspended in Klucel (0.3% hydroxy-propylcellulose), male BDF1 mice
L1210 mouse leukemia = assay: Antileukemia activity against L1210 mouse leukemia in BDF1 mice (survival); format: in vivo; settings: for T/C (test group mean day of death / control group mean day of death): Day 1 through Day 9, uninjected control group
Protocol: (§3) Male BDF1 mice, initial weight ca 23g, were inoculated i.p. on Day 0 with 10^5 L1210 cells per mouse. Treatment was initiated on Day 1 and continued through Day 9. Animals were weighed on days 1 and 5 to assess toxicity. Agents were prepared fresh daily as follows: 8-OH-quinoline (Eastman Chemical Co.) was dissolved in a small volume of absolute ethanol and diluted to the appropriate concentration with 0.1M sodium phosphate buffer, pH 6.5 (final ethanol concentration: 3%). Dilutions were made in buffer containing 3% ethanol. Tyrosinase^2 (Sigma Chemical Co., lot 121C-9530) was dissolved in buffer containing 3% ethanol. (Previous studies had shown that 3% ethanol had no effect on the activity of the enzyme) For the combination, 8-OH-quinoline was again dissolved in a small volume of ethanol, but diluted with 0.1M sodium phosphate buffer; pH6.5, containing tyrosinase in the appropriate concentration. Dilutions were made in buffer containing both 3% ethanol and tyrosinase so that both ethanol and tyrosinase concentrations remained constant as the 8-OH-quinoline concentration decreased. The combination was "incubated" at room temperature for 30 minutes before administration. The radio of enzyme to substrate administered in the combination was varied from 1:1 to 1:.125.
Actual doses administered and results comprise Table IV. Results are expressed as the ratio (T/C) of the test group mean day of death to control group mean day of death.

[5] = Day 1-5 weight change of L1210-bearing mice to assess toxicity; format: in vivo
Protocol: as §3

[6] = 8-Hydroxyquinoline 0.15 μg/ml, Tyrosinase 0

## Oc1cccc2cccnc12 [8-Hydroxyquinoline, 8-hydroxyquinoline]
[1]; 8-Hydroxyquinoline 10 μg/ml
  Reaction Rate: 0.0353 Δ OD/Min
[1]; 8-Hydroxyquinoline 50 μg/ml
  Reaction Rate: 0.0160 Δ OD/Min
[1]; 8-Hydroxyquinoline 200 μg/ml
  Reaction Rate: 0.0007 Δ OD/Min
L1210 leukemia cells [2]; 8-Hydroxyquinoline 0.1 μg/ml, Tyrosinase 0
  L1210 Cell Growth (cell concentration day 3 - day 0): 126.8 × 10^3 cells/ml
L1210 leukemia cells [2]; [6]
  L1210 Cell Growth % Inhibition (%I): 61.9%
  L1210 Cell Growth (cell concentration day 3 - day 0): 56.4 × 10^3 cells/ml
L1210 leukemia cells [2]; 8-Hydroxyquinoline 0.2 μg/ml, Tyrosinase 0
  L1210 Cell Growth (cell concentration day 3 - day 0): 7.4 × 10^3 cells/ml
L1210 leukemia cells [2]; Completed Medium, 0.15 g/ml 8-Hydroxyquinoline, two experiments
  Inhibition (%): 12.1% and 21.8%
L1210 leukemia cells [2]; Completed Medium, 0.15 g/ml 8-Hydroxyquinoline, two experiments (controls 391.9, 358.5)
  Cell × 10^3 /ml: 344.5 × 10^3 /ml and 280.2 × 10^3 /ml
L1210 leukemia cells [2]; Mus musculus, L1210, 8-Hydroxyquinoline 0.1 μg/ml, Tyrosinase 0, read-out: L1210 Cell Growth % Inhibition (%I)
  inhibition at 0.1 µg/mL: 14.3%
L1210 leukemia cells [2]; Mus musculus, L1210, 8-Hydroxyquinoline 0.15 μg/ml, Tyrosinase 0, read-out: L1210 Cell Growth % Inhibition (%I)
  inhibition at 0.15 µg/mL: > 60%
L1210 leukemia cells [2]; Mus musculus, L1210, 8-Hydroxyquinoline 0.2 μg/ml, Tyrosinase 0, read-out: L1210 Cell Growth % Inhibition (%I)
  inhibition at 0.2 µg/mL: 95%
L1210 leukemia cells [3]; two experiments
  Inhibition (%): 45.6% and 52.2%
L1210 leukemia cells [3]; two experiments (controls 102.5, 62.1)
  Cell × 10^3 /ml: 55.8 × 10^3 /ml and 29.7 × 10^3 /ml
[4]
  LD50: ~75 mg/kg
L1210 mouse leukemia; 2.5 mg/kg/day
  T/C (test group mean day of death / control group mean day of death): .95
L1210 mouse leukemia; 5 mg/kg/day
  T/C (test group mean day of death / control group mean day of death): .92
L1210 mouse leukemia; 10 mg/kg/day
  T/C (test group mean day of death / control group mean day of death): .97
L1210 mouse leukemia; 20 mg/kg/day
  T/C (test group mean day of death / control group mean day of death): .97
L1210 mouse leukemia; mouse, in vivo, listed as 8-OH-quinoline
  Mean day of Death (I.S.D.): 9.5 ± 0.8 days and 9.5 ± 0.4 days and 9.0 ± 0.6 days and 9.3 ± 0.8 days
[5]; 2.5 mg/kg/day
  Day 1-5 Weight Change: -0.3 gm/mouse
[5]; 5 mg/kg/day
  Day 1-5 Weight Change: +1.4 gm/mouse
[5]; 10 mg/kg/day
  Day 1-5 Weight Change: +1.0 gm/mouse
[5]; 20 mg/kg/day
  Day 1-5 Weight Change: +1.0 gm/mouse
